# Patent US20080267941A1, “Nutrition Comprising Betaine Against Muscle Wasting” (N. V. Nutricia, priority 2005, published 2008)
# Where a name gives a salt, the structure may show the parent alone.
# System: muscles of normal healthy rats
# Experiment: Resting muscle glycogen levels in rats after 6 weeks of oral betaine supplementation
# Type: in vivo, rat
# Settings: for Resting glycogen levels in rats: male Wistar rats, 60 mg betaine in 1 ml vanilla custard orally each day for 6 weeks, *P < 0.05
# Method: Experiments were performed on 8 male Wistar rats, 250-300 gram, which were housed individually, and had free access to water and food. All experimental procedures were approved by the Institutional Animal Care and Use Committee of the Netherlands, and complied with the principles of laboratory animal care. To determine the effect of oral betaine supplementation, the betaine group (n=4) received 1 ml vanilla custard each day in combination with 60 mg betaine (Sigma Aldrich), and the control group (n=4) received 1 ml vanilla custard. After 6 weeks of supplementation, the fast extensor digitorum longus, (EDL) and slow-(soleus) muscles were removed for further biochemical analysis and frozen in liquid nitrogen. Muscles were stored at −80° C. until analysis. Thereafter, muscles were freeze-dried during 3 days at −4° C. The freeze-dried muscles were crushed to powder, 400 μl 1M HCl was added to approximately 10 mg tissue and hydrolysed at 98° C. during 2 hours. After cooling down, 400 μl 1M NaOH was added to neutralize the samples and the samples were centrifuged 5 minutes at 13,000 rpm. Glycogen content was determined fluorimetrically by a glucose kit (Roche Diagnostics) and expressed as μmol glycosyl units·g^−1.
compound,measurement,setting,value
"C[N+](C)(C)CC(=O)O [betaine, 1-carboxy-N,N,N-trimethylmethanaminium inner salt]",Resting glycogen levels in rats,EDL (fast extensor digitorum longus) muscle,120 + 4* μmol glycosyl units/g tissue
same,Resting glycogen levels in rats,Soleus (slow) muscle,137 ± 16* μmol glycosyl units/g tissue
same,glycogen content of the muscle cells,rats given vanilla custard containing betaine vs vanilla custard control,significantly increases
